Columns and labels:
Format in all cases: cell-based, human
[1] = system: U2OS cells stably expressing HMGB1-GFP; assay: HMGB1 release (loss of nuclear HMGB1-GFP fluorescence); conditions: lurbinectedin 1 nM to 1 μM, MTX 1 and 3 μM, medium to late time points
Protocol: (§1) (a) Human osteosarcoma U2OS (a), human breast cancer HCC70 (b) human colon cancer HT29 cells (c) and murine methylcholantrene-induced fibrosarcoma MCA205 cells (d) were treated with lurbinectedin (Lurbi, 1 nM, 10 nM, 100 nM and 1 μM) for the indicated times. Subsequently, the cells were stained with 1 μM Hoechst 33342 and 1 μM propidium iodide and assessed for the loss of viability by automated image acquisition. Images were segmented, cellular debris was excluded and the number of cells with normal nuclear morphology was enumerated. Cells stably expressing CALR-GFP were treated as above. Following the cells were fixed with 3.7% of PFA, stained with 1 μM Hoechst 33342 and assessed by automated image acquisition. Images were segmented, cellular debris was excluded and CALR-GFP granularity (a surrogate marker of CALR exposure) was evaluated in the cytoplasmic region of cells with normal nuclear morphology. Wild type cells were treated as above and then assessed for cytoplasmic quinacrine granularity (after staining with the ATP-sensitive dye quinacrine together with Hoechst 33342) by automated image acquisition, segmentation and analysis. Cells stably expressing HMGB1-GFP were treated as above and then assessed for nuclear HMGB1-GFP fluorescence intensity. The cells were fixed and stained with Hoechst 33342 and images were acquired, segmented and analyzed. […]

U2OS WT cells = assay: Cytoplasmic quinacrine granularity (intracellular ATP, indicator of ATP release); conditions: lurbinectedin 1 nM to 1 μM, MTX 1 and 3 μM, dose-dependent, decreased over time, vs untreated controls
Protocol: as §1

[2] = system: U2OS cells stably expressing CALR-GFP; assay: CALR-GFP granularity (surrogate marker of CALR exposure); conditions: lurbinectedin 1 nM to 1 μM, MTX 1 and 3 μM, 4-32 hours, vs untreated controls
Protocol: as §1

[3] = system: U2OS biosensor cells expressing GFP under the MX1 promoter; assay: Type I IFN response (MX1-GFP biosensor cells treated with supernatant); conditions: supernatant of treated U2OS cells after 48 hours fresh media; biosensor cells 48 hours; throughout all time points
Protocol: In a systematic screening campaign, the capacity of lurbinectedin to induce immunogenic cell death in cancer cells was assessed in human osteosarcoma U2OS cells stably expressing fluorescent biosensors for the detection of CALR-relocation (as a surrogate marker for CALR surface exposure), HMGB1 release and Type I IFN responses together with U2OS WT cells stained with the ATP-sensitive dye quinacrine. […] The induction of cell death was evaluated based on changes in the nuclear morphology visualized by means of the DNA intercalating dye Hoechst 33342.

## O=C1c2c(O)ccc(O)c2C(=O)c2c(NCCNCCO)ccc(NCCNCCO)c21 [MTX, mitoxantrone]
[1]
  nuclear GFP signal (HMGB1-GFP): significant decrease
U2OS WT cells
  ATP signal (cytoplasmic quinacrine granularity): significant decrease
[2]
  CALR-granularity: time- and dose-dependent increase
[3]
  de novo GFP signal intensity (type 1 IFN response): significant increase
